Experimental data: patent publication US20250152564A1, “PROPYLENE KETONE-CONTAINING BIOINHIBITOR, PREPARATION METHOD THEREFOR, AND USE THEREOF” (SHANGHAI HANSOH BIOMEDICAL CO., LTD., priority 2022, published 2025)

Experiments:
[1] = system: BaF3 FGFR2-BICC1 V564F cells; assay: CellTiter-Glo cell proliferation inhibition, BaF3 FGFR2-BICC1 V564F; assay type: cell-based; conditions: Mus musculus, 72 h, read-out: BaF3 FGFR2-BICC1 V564F inhibitory activity IC50
Method: To evaluate inhibitory effects of the compounds on the proliferation of NCI-H716, SNU-16 and BaF3-FGFR2-BICC1 V564F cells by cell proliferation inhibition experiments.
CellTiter-Glo method was used to detect inhibitory effects of the compounds on the proliferation of NCI-H716, SNU-16 and BaF3 FGFR2-BICC1 V564F cells. The highest detection concentration of the compounds was 1000 nM, which was diluted in 3 folds, with a total of 9 concentrations (1000 nM to 0.15 nM). After the cells were plated at an appropriate density, compounds were added the next day and incubated for 72 h before detection using the […] detection kit.
(§1) 1) Inhibition rate (%): Inhibition rate %=[(mean value in positive control well−value in sample well)/(mean value in positive control well−mean value in negative control well)]×100, wherein the positive control well was a reaction well without a compound […], and the negative control well was a reaction wells without an enzyme.
(§2) 2) Curve fitting: Log(inhibitor) vs. response—Variable slope (four parameters) in GraphPad Prism 6 was used for fitting equation analysis of the compound concentration and the corresponding inhibition rate, and the curve was fitted to obtain the IC50 values of the compounds.

FGFR2 V564F = FGFR2 V564F (Homo sapiens (Human), UniProt P21802, V564F); assay: TR-FRET kinase inhibition assay, FGFR2 V564F; assay type: biochemical; conditions: ATP Km concentration (20 μM)
Method: (§3) To measure the IC50 values of the compounds against FGFR1, FGFR2, FGFR3, FGFR4, and FGFR2 V564F at ATP Km concentrations by TR-FRET method.
(§4) TR-FRET (time-resolved fluorescence resonance energy transfer) method was used to detect the inhibitory activity of the compounds on FGFR1, FGFR2, FGFR3, FGFR4, and FGFR2 V564F kinase region fragments. The highest detection concentration of the compounds in 5 kinase experiments was 1000 nM, which was diluted in 3 folds, with a total of 11 concentrations (1000 nM to 0.017 nM). A kinase buffer (50 mM HEPES pH 7.5, 1 mM EGTA, 10 mM MgCl2, 2 mM DTT, and 0.01% Tween-20) was used to prepare 4× enzyme solution, 4× compound solutions diluted in gradient, and a 2×ATP/Peptide substrate solution. To a 384-well plate, 2.5 μL of enzyme solution and 2.5 μL of diluted […] compound solution were added, and 5 μL of 2×ATP/Peptide substrate solution was then added. After reacting at room temperature for 60 minutes for FGFR1, FGFR2, FGFR3, and FGFR2 V564F kinases, and 120 minutes for FGFR4 kinase, 10 μL of a 2× termination and detection mixed liquid prepared with 1×LANCE detection buffer with an EDTA concentration of 20 mM and a Europium-anti-phosphotyrosine (PT66) concentration of 2 nM was added to each well of the plate. After reacting at room temperature for 60 minutes for FGFR1, FGFR2, FGFR3, and FGFR4, and 30 minutes for FGFR2 V564F, the fluorescence signal value in each well of the plate was measured by a microplate reader.
as §1, with “(%): Calculation was performed on the raw data (665 nm/620 nm reading ratio) according to the following formula to obtain the inhibition rate.” for “(%):”
as §2

[2] = Pharmacokinetic experiment in SD rats after oral administration; assay type: in vivo; conditions: 5 mg/kg, plasma
Method: To study the pharmacokinetic behavior of the compounds of the present invention in the rat body (plasma) after oral administration at a dose of 5 mg/kg using SD rats as test animals.
3 SD rats/group, male, from Shanghai Jiesijie Experimental Animal Co., Ltd., animal production license number (SCXK (Shanghai) 2013-0006 N0.311620400001794).
PO, 10% solutol HS15-0.5% CMC-Na was dissolved by ultrasound and prepared into a clear solution or homogeneous suspension.
3 SD rats/group, male; p.o. respectively at a dose of 5 mg/kg and an administration volume of 10 mL/kg after the […] were fasted overnight.
After oral administration to rats, at 0.25, 0.5, 1, 2, 4, 6, 8 and 24 hours, 0.2 mL of blood was collected from the jugular vein, placed in an EDTA-K2 test tube, centrifuged at 6000 rpm for 6 min at 4° C. to separate the plasma, which was stored at −80° C.
1) 100 μL of acetonitrile was added to 20 μL of plasma sample for pelleting, and it was mixed and centrifuged at 3500×g for 5-20 min.
2) The treated supernatant solution was taken and subjected to LC/MS/MS to analyze the concentrations of the test compounds. LC/MS/MS analysis instrument: AB Sciex API 4000 Qtrap.
• Liquid phase conditions: Shimadzu LC-20AD pump • Chromatographic column: Waters Xbridge C18 5 μm, 4.6×50 mm mobile phase: liquid A was 0.1% aqueous formic acid solution, and liquid B was methanol • Flow rate: 1.0 mL/min • Elution time: 0-4.0 min, the eluent was as follows: […]

FGFR2 = FGFR2 (Homo sapiens (Human), UniProt P21802); assay: TR-FRET kinase inhibition assay, FGFR2; assay type: biochemical; conditions: ATP Km concentration (30 μM)
Method: as §3, §4
as §1, with “(%): Calculation was performed on the raw data (665 nm/620 nm reading ratio) according to the following formula to obtain the inhibition rate.” for “(%):”
as §2

FGFR1 = FGFR1 (Homo sapiens (Human), UniProt P11362); assay: TR-FRET kinase inhibition assay, FGFR1; assay type: biochemical; conditions: ATP Km concentration (30 μM)
Method: as §3, §4
as §1, with “(%): Calculation was performed on the raw data (665 nm/620 nm reading ratio) according to the following formula to obtain the inhibition rate.” for “(%):”
as §2

Sequence of FGFR2 (P21802 481-770): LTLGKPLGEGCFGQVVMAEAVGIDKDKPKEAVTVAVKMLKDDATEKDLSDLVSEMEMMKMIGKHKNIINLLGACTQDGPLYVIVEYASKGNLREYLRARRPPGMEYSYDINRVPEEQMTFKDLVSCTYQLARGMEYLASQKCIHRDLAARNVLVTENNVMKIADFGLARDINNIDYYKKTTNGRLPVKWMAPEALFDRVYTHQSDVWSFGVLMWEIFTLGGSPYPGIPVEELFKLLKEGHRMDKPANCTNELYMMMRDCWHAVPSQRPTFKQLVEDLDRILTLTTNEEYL
Sequence of FGFR2 V564F (P21802 481-770 V564F): as the sequence (P21802 481-770) above, with V84F counted along it
Sequence of FGFR1 (P11362 478-767): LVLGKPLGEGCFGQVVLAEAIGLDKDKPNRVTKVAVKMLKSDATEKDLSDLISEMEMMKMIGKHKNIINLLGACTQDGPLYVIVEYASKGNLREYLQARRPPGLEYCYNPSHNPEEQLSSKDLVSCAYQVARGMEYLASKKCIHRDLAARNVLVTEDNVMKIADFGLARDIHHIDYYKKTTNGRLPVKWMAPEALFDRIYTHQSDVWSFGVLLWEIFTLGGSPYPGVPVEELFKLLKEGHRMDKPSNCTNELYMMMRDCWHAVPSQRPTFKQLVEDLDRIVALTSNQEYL

| SMILES | IC50 [1] [nM] | IC50 (FGFR2 V564F) [nM] | AUC(0-t) ([2]; male, Sprague-Dawley (SD), rat, po, read-out: Area under the curve AUC0-t) [ng·h/mL] | AUC(0-inf) ([2]; male, Sprague-Dawley (SD), rat, po, read-out: Area under the curve AUC0-∞) [ng·h/mL] | half-life ([2]; male, Sprague-Dawley (SD), rat, po, read-out: Half-life t1/2 (converted)) [h] | MRT ([2]; male, Sprague-Dawley (SD), rat, po, read-out: Mean residence time MRT) [h] | Cmax ([2]; male, Sprague-Dawley (SD), rat, po, read-out: Plasma concentration Cmax) [ng/mL] | Time to peak tmax ([2]; p.o.) [h] | IC50 (FGFR2) [nM] | IC50 (FGFR1) [nM] |
| --- | --- | --- | --- | --- | --- | --- | --- | --- | --- | --- |
| C=CC(=O)N1CC[C@H](n2nc(C#Cc3ccc4c(c3)nc(C)n4C3CC3)c3c(N)ncc(C(C)=O)c32)C1 [Example 53, (S)-1-(3-(7-acetyl-4-amino-3-((1-cyclopropyl-2-methyl-1H-benzo[d]imidazol-5-yl)ethynyl)-1H-pyrazolo[4,3-c]pyridin-1-yl)pyrrolidin-1-yl)prop-2-en-1-one] | 4.9 | 1.9 |  |  |  |  |  |  | 3.5 |  |
| C=CC(=O)N1CC[C@H](n2nc(C#Cc3cc4ncn(C)c4cc3F)c3c(N)nccc32)C1 [A, reference compound] | 7.4 | 6.1 |  |  |  |  |  |  | 12.8 |  |
| C=CC(=O)N1CC[C@H](n2nc(C#Cc3cc4ncn(C5CC5)c4cc3F)c3c(N)ncc(C(=O)C(C)C)c32)C1 [Example 50] | 2.1 | 1 |  |  |  |  |  |  | 2.6 |  |
| C=CC(=O)N1CC[C@H](n2nc(C#Cc3ccc4ccnn4c3)c3c(N)ncc(C(=O)C4CC4)c32)C1 [Example 73, (S)-1-(3-(4-amino-7-(cyclopropanecarbonyl)-3-(pyrazolo[1,5-a]pyridine-6-ethynylene)-1H-pyrazolo[4,3-c]pyridin-1-yl)pyrrolidine-1-methyl)prop-2-en-1-one] |  | 0.9 |  |  |  |  |  |  | 0.7 | 2.3 |
| C=CC(=O)N1CC[C@H](n2nc(C#Cc3cc4nc(C)n(C5CC5)c4cc3Cl)c3c(N)ncc(C(C)=O)c32)C1 [Example 54, (S)-1-(3-(7-acetyl-4-amino-3-((6-chloro-1-cyclopropyl-2-methyl-1H-benzo[d]imidazol-5-yl)ethynyl)-1H-pyrazolo[4,3-c]pyridin-1-yl)pyrrolidin-1-yl)prop-2-en-1-one] | 2.2 | 0.9 |  |  |  |  |  |  | 3.4 | 5.5 |
| C=CC(=O)N1CC[C@H](n2nc(C#Cc3c(F)cc4c(ncn4C)c3F)c3c(N)ncc(-c4cscn4)c32)C1 [Example 29, (S)-1-(3-(4-amino-3-((4,6-difluoro-1-methyl-1H-benzo[d]imidazol-5-yl)ethynyl)-7-(thiazol-4-yl)-1H-pyrazolo[4,3-c]pyridin-1-yl)pyrrolidin-1-yl)prop-2-en-1-one] |  | 3.6 |  |  |  |  |  |  | 1.5 | 7.1 |
| C=CC(=O)N1CC[C@H](n2nc(C#Cc3cc4nc(C)n(C5CC5)c4cc3F)c3c(N)ncc(C(C)=O)c32)C1 [Example 55, (S)-1-(3-(7-acetyl-4-amino-3-((1-cyclopropyl-6-fluoro-2-methyl-1H-benzo[d]imidazol-5-yl)ethynyl)-1H-pyrazolo[4,3-c]pyridin-1-yl)pyrrolidin-1-yl)prop-2-en-1-one] | 2.2 | 1 |  |  |  |  |  |  | 2.8 | 4.4 |
| C=CC(=O)N1CC[C@H](n2nc(C#Cc3cc4ncn(CC)c4cc3F)c3c(N)ncc(-c4nccs4)c32)C1 [Example 22, (S)-1-(3-(4-amino-3-((1-ethyl-6-fluoro-1H-benzo[d]imidazol-5-yl)ethynyl)-7-(thiazol-2-yl)-1H-pyrazolo[4,3-c]pyridin-1-yl)pyrrolidin-1-yl)prop-2-en-1-one] |  | 0.8 |  |  |  |  |  |  | 1.6 | 6.5 |

More lines, now with the values ahead:

| IC50 [1] [nM] | IC50 (FGFR2 V564F) [nM] | AUC(0-t) ([2]; male, Sprague-Dawley (SD), rat, po, read-out: Area under the curve AUC0-t) [ng·h/mL] | AUC(0-inf) ([2]; male, Sprague-Dawley (SD), rat, po, read-out: Area under the curve AUC0-∞) [ng·h/mL] | half-life ([2]; male, Sprague-Dawley (SD), rat, po, read-out: Half-life t1/2 (converted)) [h] | MRT ([2]; male, Sprague-Dawley (SD), rat, po, read-out: Mean residence time MRT) [h] | Cmax ([2]; male, Sprague-Dawley (SD), rat, po, read-out: Plasma concentration Cmax) [ng/mL] | Time to peak tmax ([2]; p.o.) [h] | IC50 (FGFR2) [nM] | IC50 (FGFR1) [nM] | SMILES |
| --- | --- | --- | --- | --- | --- | --- | --- | --- | --- | --- |
| 1.4 | 0.8 | 4120 | 4150 | 3.9 | 4.2 | 795 | 2 | 1.7 |  | C=CC(=O)N1CC[C@H](n2nc(C#Cc3cc4ncn(C5CC5)c4cc3F)c3c(N)ncc(C(=O)CC)c32)C1 [Example 48, (S)-1-(3-(4-amino-3-((1-cyclopropyl-6-fluoro-1H-benzo[d]imidazol-5-yl)ethynyl)-7-propionyl-1H-pyrazolo[4,3-c]pyridin-1-yl)pyrrolidin-1-yl)prop-2-en-1-one] |
| 1.4 | 0.8 |  |  |  |  |  |  | 1.2 | 3.5 | C=CC(=O)N1CC[C@H](n2nc(C#Cc3c(F)cc4c(ncn4C)c3F)c3c(N)ncc(C(C)=O)c32)C1 [Example 31, (S)-1-(3-(7-acetyl-4-amino-3-((4,6-difluoro-1-methyl-1H-benzo[d]imidazol-5-yl)ethynyl)-1H-pyrazolo[4,3-c]pyridin-1-yl)pyrrolidin-1-yl)prop-2-en-1-one] |
| 2.8 | 0.8 |  |  |  |  |  |  | 2.9 | 6.8 | C=CC(=O)N1CC[C@H](n2nc(C#Cc3ccc4c(c3)ncn4C)c3c(N)ncc(C(=O)C(C)C)c32)C1 [Example 66] |
|  | 0.6 |  |  |  |  |  |  | 1.5 | 5.7 | [2H]C([2H])([2H])n1cnc2cc(C#Cc3nn([C@H]4CCN(C(=O)C=C)C4)c4c(-c5nccs5)cnc(N)c34)c(F)cc21 [Example 25, (S)-1-(3-(4-amino-3-((6-fluoro-1-(methyl-d3)-1Hbenzo[d]imidazol-5-yl)ethynyl)-7-(thiazol-2-yl)-1Hpyrazolo[4,3-c]pyridin-1-yl)pyrrolidin-1-yl)prop-2-en-1-one] |
| 2.5 | 0.5 |  |  |  |  |  |  | 1.3 | 5.6 | C=CC(=O)N1CC[C@H](n2nc(C#Cc3ccc4c(c3)ncn4CC)c3c(N)ncc(C(=O)CC)c32)C1 [Example 57, (S)-1-(3-(4-amino-3-((1-ethyl-1H-benzo[d]imidazol-5-yl)ethynyl)-7-propionyl-1H-pyrazolo[4,3-c]pyridin-1-yl)pyrrolidin-1-yl)prop-2-en-1-one] |
| 3.5 | 0.7 |  |  |  |  |  |  | 1.8 |  | C=CC(=O)N1CC[C@H](n2nc(C#Cc3ccc4c(c3)ncn4CC)c3c(N)ncc(C(C)=O)c32)C1 [Example 56, (S)-1-(3-(7-acetyl-4-amino-3-((1-ethyl-1H-benzo[d]imidazol-5-yl)ethynyl)-1H-pyrazolo[4,3-c]pyridin-1-yl)pyrrolidine-1-methyl)prop-2-en-1-one] |
| 0.8 | 0.4 |  |  |  |  |  |  | 2.2 | 4.4 | C=CC(=O)N1CC[C@H](n2nc(C#Cc3cc4ncn(C5CC5)c4cc3Cl)c3c(N)ncc(C(C)=O)c32)C1 [Example 44, (S)-1-(3-(7-acetyl-4-amino-3-((6-chloro-1-cyclopropyl-1H-benzo[d]imidazol-5-yl)ethynyl)-1H-pyrazolo[4,3-c]pyridin-1-yl)pyrrolidin-1-yl)prop-2-en-1-one] |
